Assays:
BMDMs = assay: Engulfment of ACs with increased rigidity by BMDMs; format: cell-based, mouse; conditions: GA 10 nM, 1 minute, control and Wdfy3 knockout BMDMs
Experimental: AC preparation and labeling for efferocytosis assays: Jurkat cells (about 10 μm, a human T cell line) and mouse thymocytes (about 5 μm, isolated from mouse thymi) are treated with staurosporine for 3 hours to induce apoptosis. The method routinely yields greater than 90% Annexin V+ ACs (Shi et al., 2022). […] Mouse RBC are isolated from whole blood freshly and opsonized by IgG (Sosale et al., 2015). Storage at 4° C. for one-week or treatment by GA increases rigidity (Sosale et al., 2015). Mouse RBC are freshly prepared because commercial RBCs are often stored in cold conditions for shipment and thus likely already have increased rigidity. Cells will be labeled by TAMRA (10 μg/mL, 25 minutes, Invitrogen #C1171) that labels both DNA and protein (Shi et al., 2022; Bi et al., 2022). To assess uptake and acidification, ACs are fluorescently labeled by TAMRA (pH-insensitive) and pHrodo (20 ng/mL, 30 minutes, ThermoFisher #P35373, pH-sensitive and only fluoresces in acidic environments) (Shi et al., 2022; Bi et al., 2022). RBC are labeled by PKH26 which labels membrane lipids (Sigma PKH26GL-1KT) (Shi et al., 2022). Cell debris is prepared by passing labeled ACs 10 times through 27G needles (Puigdellivol et al., 2021). […] The % of macrophages that engulfed cargo will be quantified by FACS (Shi et al., 2022).

Jurkat cells = assay: Induction of apoptosis in Jurkat cells; format: cell-based, human; conditions: 5 μg/mL, 3 hours
Experimental: Apoptotic Jurkat cells were generated by treating Jurkat cells with 5 μg/mL staurosporine in RPMI-1640 medium for 3 hours at a density of 2.5×10^6 cells/mL at 37° C., 5% CO2. The method routinely yields greater than 90% Annexin V^+ apoptotic Jurkat cells. After washing in 1×DPBS, apoptotic Jurkat cells were resuspended at a concentration of 2×10^7 cells/mL in Diluent C with either PKH67 (green fluorescence) or PKH26 (red fluorescence) per the manufacturer's instruction. After labeling, the cells were rinsed twice with DMEM basal medium containing 10% HI-FBS and immediately used for efferocytosis assay. For labeling with other fluorescent probes, ACs were resuspended at a density of 2.5×10^6 cells/mL in DMEM basal media and incubated with 20 ng/mL pHrodo red (Life Technologies) and/or Hoechst 33342 solution (20 mM, 1:10,000 dilution, Thermo Scientific) for 30 minutes, or NuclearMask Blue Stain solution (1:2000 dilution, Invitrogen) for 30 minutes. TAMRA staining was applied to ACs at a concentration of 2×10^7 cells/mL in DMEMbasal medium at 10 μg/mL for 25 minutes.

[1] = test system: Jurkat cells and mouse thymocytes; assay: AC preparation for efferocytosis assays (Example 2); format: cell-based, human; conditions: 3 hours
Experimental: AC preparation and labeling for efferocytosis assays: Jurkat cells (about 10 μm, a human T cell line) and mouse thymocytes (about 5 μm, isolated from mouse thymi) are treated with staurosporine for 3 hours to induce apoptosis. The method routinely yields greater than 90% Annexin V+ ACs (Shi et al., 2022). GA treatment at 10 mM for 1-minute leads to an increase in cell rigidity (Sosale et al., 2015). Mouse RBC are isolated from whole blood freshly and opsonized by IgG (Sosale et al., 2015). Storage at 4° C. for one-week or treatment by GA increases rigidity (Sosale et al., 2015). Mouse RBC are freshly prepared because commercial RBCs are often stored in cold conditions for shipment and thus likely already have increased rigidity. Cells will be labeled by TAMRA (10 μg/mL, 25 minutes, Invitrogen #C1171) that labels both DNA and protein (Shi et al., 2022; Bi et al., 2022). To assess uptake and acidification, ACs are fluorescently labeled by TAMRA (pH-insensitive) and pHrodo (20 ng/mL, 30 minutes, ThermoFisher #P35373, pH-sensitive and only fluoresces in acidic environments) (Shi et al., 2022; Bi et al., 2022). RBC are labeled by PKH26 which labels membrane lipids (Sigma PKH26GL-1KT) (Shi et al., 2022). Cell debris is prepared by passing labeled ACs 10 times through 27G needles (Puigdellivol et al., 2021). […] The % of macrophages that engulfed cargo will be quantified by FACS (Shi et al., 2022).

Row | Structure (SMILES) | engulfment of GA-treated (rigid) ACs by BMDMs (BMDMs) | engulfment of GA-treated (rigid) ACs by BMDMs (BMDMs; listed as GA) | Annexin V+ apoptotic Jurkat cells (Jurkat cells) | Annexin V+ ACs [1]
1 | O=CCCCC=O [Glutaraldehyde] | increased engulfment | more effective engulfment |  | 
2 | CN[C@@H]1C[C@H]2O[C@@](C)([C@@H]1OC)n1c3ccccc3c3c4c(c5c6ccccc6n2c5c31)C(=O)NC4 [staurosporine] |  |  | greater than 90% | greater than 90%
